In ChEMBL document CHEMBL1153605, “Synthesis and in vivo antidiabetic activity of novel dispiropyrrolidines through [3+2] cycloaddition reactions with thiazolidinedione and rhodanine derivatives” (2009):

Columns and labels:
Format in all cases: functional
Rattus norvegicus [1] = test: Reduction of liver GPT level in alloxan-induced diabetic Wistar rat model assessed per mg of protein at 36 mg/kg, po administered once daily for 15 days measured on day 18
Rattus norvegicus [2] = test: Reduction of blood urea nitrogen level in alloxan-induced diabetic Wistar rat model at 36 mg/kg, po administered once daily for 15 days measured on day 18
Rattus norvegicus [3] = test: Reduction of serum creatinine level in alloxan-induced diabetic Wistar rat model at 36 mg/kg, po administered once daily for 15 days measured on day 18
Rattus norvegicus [4] = test: Antidiabetic activity in alloxan-induced diabetic Wistar rat model assessed as reduction in blood glucose level at 36 mg/kg, po administered once daily for 15 days measured after 6 hrs postdose
Rattus norvegicus [5] = test: Antidiabetic activity in alloxan-induced diabetic Wistar rat model assessed as reduction in blood glucose level at 36 mg/kg, po administered once daily for 15 days measured after 3 hrs postdose
Rattus norvegicus [6] = test: Antidiabetic activity in alloxan-induced diabetic Wistar rat model assessed as reduction in blood glucose level at 36 mg/kg, po administered once daily for 15 days measured after 1 hr postdose
Rattus norvegicus [7] = test: Reduction of serum GPT level in alloxan-induced diabetic Wistar rat model at 36 mg/kg, po administered once daily for 15 days measured on day 18
Rattus norvegicus [8] = test: Reduction of liver ALP level in alloxan-induced diabetic Wistar rat model at 36 mg/kg, po administered once daily for 15 days measured on day 18

Compound	Activity (Rattus norvegicus [1])	Activity (Rattus norvegicus [2])	Activity (Rattus norvegicus [3])	Activity (Rattus norvegicus [4])	Activity (Rattus norvegicus [5])	Activity (Rattus norvegicus [6])	Activity (Rattus norvegicus [7])	Activity (Rattus norvegicus [8])
CN1C[C@H](c2ccc(F)c(F)c2)[C@]2(SC(=O)NC2=O)[C@]12C(=O)Nc1ccccc12	582 U/mg protein	35 mg/dL	2.1 mg/dL	115.3 mg/dL	123.5 mg/dL	134.5 mg/dL	132 U/ml	41.3 KA/dl
Cc1ccc([C@H]2CN(C)[C@@]3(C(=O)Nc4ccccc43)[C@@]23SC(=O)NC3=O)cc1	558 U/mg protein	37.5 mg/dL	1.8 mg/dL	125.5 mg/dL	136.5 mg/dL	140.5 mg/dL	129.8 U/ml	38.3 KA/dl
CN1C[C@H](c2ccc(O)c(O)c2)[C@]2(SC(=O)NC2=S)[C@]12C(=O)Nc1ccccc12	646 U/mg protein	39 mg/dL	2 mg/dL	120.5 mg/dL	158.5 mg/dL	175.5 mg/dL	142.8 U/ml	43.8 KA/dl
COc1ccc([C@H]2CN(C)[C@@]3(C(=O)Nc4ccccc43)[C@@]23SC(=O)NC3=O)cc1OC	698 U/mg protein	41.8 mg/dL	1.8 mg/dL	115.8 mg/dL	123.8 mg/dL	133.5 mg/dL	140.5 U/ml	48.5 KA/dl
COc1ccc([C@H]2CN(C)[C@@]3(C(=O)Nc4ccccc43)[C@@]23SC(=O)NC3=S)cc1OC	576 U/mg protein	35.5 mg/dL	2.2 mg/dL	95.8 mg/dL	106.5 mg/dL	140.5 mg/dL	121 U/ml	42.3 KA/dl
CN1C[C@H](c2ccc(F)c(F)c2)[C@]2(SC(=O)NC2=S)[C@]12C(=O)Nc1ccccc12	626 U/mg protein	38.5 mg/dL	1.5 mg/dL	106.5 mg/dL	112.8 mg/dL	137.5 mg/dL	137.5 U/ml	37 KA/dl
